Assay results reported in PubChem BioAssay (NCI).
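Compound exposure: 48 hours, 5 concentrations, 96-well plates. GI50 marks 50% less growth. TGI denotes the concentration required for complete inhibition of growth.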

What was measured:
Test in all cases: growth of human tumour cells (NCI), 48 h
SK-MEL-28 melanoma = tested on: SK-MEL-28 melanoma
MDA-N = tested on: MDA-N
NCI-H226 lung = tested on: NCI-H226 lung
IGROV1 ovarian = tested on: IGROV1 ovarian
OVCAR-4 ovarian = tested on: OVCAR-4 ovarian
NCI-H460 lung = tested on: NCI-H460 lung
NCI-H522 lung = tested on: NCI-H522 lung
DU-145 prostate = tested on: DU-145 prostate
HL-60(TB) leukemia = tested on: HL-60(TB) leukemia
SR leukemia = tested on: SR leukemia

| Structure (SMILES) | TGI (SK-MEL-28 melanoma) | TGI (MDA-N) | TGI (NCI-H226 lung) | TGI (IGROV1 ovarian) | TGI (OVCAR-4 ovarian) | TGI (NCI-H460 lung) | TGI (NCI-H522 lung) | TGI (DU-145 prostate) | TGI (HL-60(TB) leukemia) | TGI (SR leukemia) | GI50 (SK-MEL-28 melanoma) | GI50 (DU-145 prostate) | GI50 (IGROV1 ovarian) | GI50 (OVCAR-4 ovarian) | GI50 (SR leukemia) | GI50 (NCI-H460 lung) | GI50 (NCI-H522 lung) | GI50 (HL-60(TB) leukemia) |
| --- | --- | --- | --- | --- | --- | --- | --- | --- | --- | --- | --- | --- | --- | --- | --- | --- | --- | --- |
| Nc1ccc2ccc(-c3ccc[nH]3)nc2n1 | > 100 µM | > 100 µM | > 100 µM | > 100 µM | > 100 µM | > 100 µM | > 100 µM | – | – | – | – | – | – | – | – | – | – | – |
| CCOC(=O)C(=O)CC(=O)C1=C(c2ccccc2OC)CC(c2cccs2)=CC1=O | > 100 µM | > 100 µM | > 100 µM | > 100 µM | – | > 100 µM | > 100 µM | > 100 µM | > 100 µM | – | – | – | – | – | – | – | – | – |
| CCCCn1c2ccccc2c2ccc3c(c21)C(=O)C=CC3=O | > 100 µM | – | > 100 µM | > 100 µM | > 100 µM | > 100 µM | > 100 µM | – | – | > 100 µM | – | – | – | – | – | – | – | – |
| Clc1ccc(C2CC(c3cccc(Nc4ccncc4)c3)=NN2c2cc(Cl)cc(Cl)c2)cc1 (stereo unspecified) | 3.39 µM | – | – | 3.32 µM | 3.39 µM | 4.03 µM | 3.79 µM | 3.39 µM | 5.05 µM | 4.65 µM | 1.76 µM | 1.85 µM | 1.71 µM | 1.8 µM | 1.86 µM | 1.97 µM | 1.86 µM | 2.2 µM |
| CN[C@@H](C)[C@@H](O)c1ccccc1 | > 100 µM | > 100 µM | > 100 µM | > 100 µM | > 100 µM | > 100 µM | > 10 µM | > 100 µM | > 100 µM | – | – | – | – | – | – | – | – | – |
| O=C(N/N=C(/COc1ccccc1Cl)N=Cc1ccncc1)c1ccncc1 | > 100 µM | > 100 µM | – | > 100 µM | > 100 µM | > 100 µM | > 100 µM | > 100 µM | > 100 µM | – | – | – | – | – | – | – | – | – |
| CCCCCN(CCCCC)CC(C)(C)C(O)c1ccc(OC)c2ccccc12 (stereo unspecified) | 24.5 µM | – | 33.6 µM | 14.3 µM | 27.9 µM | 24.9 µM | 20.3 µM | 28.2 µM | 20.7 µM | 11.3 µM | – | – | – | – | – | – | – | – |
| O=C1C2=C(SCCS2)C(=O)c2c(Sc3ccc(Cl)cc3)c(Sc3ccc(Cl)cc3)c(Sc3ccc(Cl)cc3)c(Sc3ccc(Cl)cc3)c21 | – | > 100 µM | > 100 µM | > 100 µM | > 100 µM | > 100 µM | – | > 100 µM | – | 36.2 µM | – | – | – | – | – | – | – | – |
| CC(C)(C)OC(=O)N1[C@@H]2Cc3ccc(N)cc3[C@@]1(C)c1ccccc12 | – | 45.3 µM | – | > 100 µM | > 100 µM | 48.8 µM | 38.4 µM | > 100 µM | 44.9 µM | – | – | – | – | – | – | – | – | – |
| COc1cc2c(cc1OC)[C@@](C)(C(O)C(O)C(C)(C)O)NCC2 (stereo partly specified) | > 100 µM | > 100 µM | > 100 µM | > 100 µM | > 100 µM | – | > 100 µM | > 100 µM | > 100 µM | > 100 µM | – | – | – | – | – | – | – | – |
| COP(=O)(O)C(N)Cc1c[nH]c2ccccc12 (stereo unspecified) | > 100 µM | > 100 µM | > 100 µM | > 100 µM | > 100 µM | > 100 µM | > 100 µM | > 100 µM | – | > 100 µM | – | – | – | – | – | – | – | – |
